How the values were obtained:
ZIKV [1] = assay: ZIKV reporter assay (luciferase-expressing ZIKV PAN1 Nluc in Huh7 cells); assay type: cell-based; conditions: Zika virus, Huh-7, Huh7, MOI 0.2, 72 hpi
Experimental: The initial screening for ZIKV was performed using the in-house developed infectious ZIKV reporter expressing Nanoluc (ZIKV PAN1 Nluc) (see details in SI). Briefly, 1.5 × 10^4 Huh7 cells per well were seeded in 96 well plates. Next day, cells were inoculated with the ZIKV reporter at a multiplicity of infection (MOI) of 0.2 in infection medium (MEM medium supplemented with 1% FBS, 100 IU streptomycin/penicillin per mL, 1 mM sodium pyruvate and 10 mM HEPES). After 2 h, the inoculum was replaced with post-infection medium (MEM medium supplemented with 5% FBS, 100 IU streptomycin/penicillin per mL, 1 mM sodium pyruvate and 10 mM HEPES) containing compound of interest (10 µM). We used the flavivirus NS5 MTase inhibitor NSC12155^13 (10 µM) and the NS5 RdRp inhibitor NITD008^12 (1 µM) as positive controls for inhibition or 0.05% DMSO as vehicle control. Seventy-two hours post-infection (hpi), the cells were lysed with 50 µL 1× luciferase lysis buffer (Promega, Madison, WI, USA), incubated 10 min at room temp and stored at −80 °C. Thirty-five µL of lysed cells were transferred to a white 96-well plate and combined with 35 µL Nano-Glo® luciferase assay substrate (Promega) diluted 1:50 in Nano-Glo® luciferase assay buffer (Promega). The reaction was incubated for 2 min and luminescence readings were acquired using a Neo 2 plate reader (BioTek, Winooski, VT, USA). Percent inhibition was calculated in GraphPad Prism (San Diego, CA, USA) normalizing the luciferase signal to infected cells treated with DMSO (0% inhibition) and uninfected cells treated with DMSO (100% inhibition). EC50 values were calculated in GraphPad Prism using data obtained from dose-response experiments. For compounds 1 and 8, a range of concentrations between 0.05 and 15 µM were used. For compounds 11, 14, 23 and NSC12155, we used concentrations from 0.005 to 90 µM and 0.002 to 45 µM for NITD008.

[2] = Cell viability assay (MTS); assay type: cell-based; conditions: human, non-infected Huh7 cells; for viability at 10 µM: normalized to DMSO; for CC50 at 72 h: Huh7 cells
Experimental: Cell viability assays for non-infected Huh7 cells treated with the testing compounds (in-house library), control compounds (NITD008, RDV) and DMSO were performed in parallel with the antiviral screening. After 3 or 5 days of treatment, depending upon the experiment, cell viability was evaluated using the MTS-based tetrazolium reduction CellTiter 96 Aqueous Non-Radioactive cell proliferation assay (Promega). Treatment was retired from the wells and the cells incubated with MTS diluted 1:10 in MEM medium supplemented with 10% FBS. Absorbance was measured at 490 nm wavelength. Readings were normalized with DMSO-treated cells (100%) and expressed as % viability. For dose-response experiments, we used concentrations between 0.01 and 90 µM and dose-response curves and CC50 were calculated using GraphPad Prism.

ZIKV [3] = assay: ZIKV titer-reduction assay (plaque assay); assay type: cell-based, Zika virus; conditions: Huh7, MOI 0.2, 72 hpi; for inhibition at 1.5 µM / inhibition at 8.5 µM / EC50 / EC90: Zika virus; for inhibition at 1.5 µM / inhibition at 8.5 µM: Huh-7, 72 h; for EC50 / EC90: Huh-7
Experimental: (§1) Selected compounds were validated at 8.5 µM or 1.5 µM (for compounds considered toxic at higher concentrations) using titer-reduction assays. Huh7 cells (1.5 × 10^5 per well) were plated in 24-well plates. Next day, the cells were inoculated with ZIKV or DENV (MOI 0.2 or 0.05, respectively) and two hours later, the inoculum was replaced with post-infection medium containing compound of interest at 8.5 µM or 1.5 µM. Seventy-two hpi, supernatants from infected and treated cells were collected and viral titers were measured by plaque assay. To visualize plaques, confluent Vero cells in 24-well plates were inoculated with 1:10 serial dilutions of supernatants. After two hours, the inoculum was retired and replaced with 800 µL of overlay medium (MEM medium containing 1.3% methylcellulose, 2% FBS, 100 IU streptomycin/penicillin per mL and 10 mM HEPES). After 5 days (7 days for DENV), cells were washed with PBS, fixed with 2% formaldehyde, and stained using 0.5% crystal violet in 25% methanol. Infectious virus titer (pfu/mL) was determined using the following formula: number of plaques × dilution factor × (1/inoculum volume (mL)). Viral titers were normalized with DMSO-treated and infected cells (0% inhibition). The limit of detection was 200 pfu/mL (100% inhibition). […] Dose-response assays (Figure S4, Panels B and C) were performed for selected compounds using titer-reduction assays. We used a concentration range of 0.5 to 15 µM for all selected compounds except for compound 14 (range of 0.1–3 µM). Pfu/mL were normalized as mentioned for single-dose response experiment using the values for DMSO-treated and infected cells (0% inhibition) and the limit of detection value (200 pfu/mL) as 100% inhibition. Dose-response curves were built in GraphPad Prism and EC50 values were obtained from those curves.

DENV-2 = assay: DENV titer-reduction assay (plaque assay); assay type: cell-based, dengue virus; conditions: 8.5 µM (compound 14 at 1.5 µM), Huh7, MOI 0.05, 72 h
Experimental: as §1
Figure 2 Inhibition of DENV by selected compounds. Huh7 cells were plated in 24 well plate. Next day, cells were inoculated with DENV (MOI = 0.05). After 2 h of infection inoculum was retired and the cells were treated with inhibitors at 8.5 µM (except for compound 14, 1.5 µM) for 72 h. Next, supernatants were assayed for viral titer by plaque assay and titers were normalized vs DMSO and expressed as % inhibition. The experiment was performed two independent times and each sample was performed in triplicate. The bars depict mean plus standard error of the mean.

ZIKV NS5 MTase = ZIKV NS5 MTase (Zika virus, UniProt A0A024B7W1); assay: ZIKV NS5 MTase biochemical assay; conditions: read-out: IC50 against ZIKV NS5 MTase
Sequence of ZIKV NS5 MTase (A0A024B7W1 2521-2785): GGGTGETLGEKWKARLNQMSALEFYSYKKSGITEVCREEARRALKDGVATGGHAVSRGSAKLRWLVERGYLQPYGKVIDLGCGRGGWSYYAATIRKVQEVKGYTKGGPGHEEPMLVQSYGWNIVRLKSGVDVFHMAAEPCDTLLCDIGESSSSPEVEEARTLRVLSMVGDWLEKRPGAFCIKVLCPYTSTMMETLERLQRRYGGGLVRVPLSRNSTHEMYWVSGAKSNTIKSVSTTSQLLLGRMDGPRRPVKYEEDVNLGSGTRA

Structure (SMILES)	inhibition at 10 µM (ZIKV [1]) [%]	EC50 (ZIKV [1]) [µM]	viability at 10 µM [2] [%]	CC50 at 72 h [2] [µM]	inhibition at 1.5 µM (ZIKV [3]; 1.5 µM) [%]	inhibition at 8.5 µM (ZIKV [3]) [%]	EC50 (ZIKV [3]) [µM]	EC90 (ZIKV [3]) [µM]	Inhibition of DENV (% inhibition / protection) (DENV-2)	Titer Reduction Assay EC99 (ZIKV [3]; NR = not reached) [µM]	IC50 (ZIKV NS5 MTase) [µM]	Titer Reduction Assay % at 1.5 µM (ZIKV [3]; 1.5 µM)
N#Cc1ccc(Cn2ccc3c(NCc4cccc(Cl)c4)ncnc32)cc1 [Compound 8, 4-((4-((3-Chlorobenzyl)amino)-7H-pyrrolo[2,3-d]pyrimidin-7-yl)methyl)benzonitrile]	78	4.1	68	20.6	47	97	4.29	9.02	among the top inhibitors			
O=[N+]([O-])c1ccc(Cn2ccc3c(NCc4ccc(Cl)c(Cl)c4)ncnc32)cc1 [Compound 23, N-(3,4-Dichlorobenzyl)-7-(4-nitrobenzyl)-7H-pyrrolo[2,3-d]pyrimidin-4-amine]	91	5.7	80	26.8		98	5.91	10.4	among the top inhibitors	12.0		
O=[N+]([O-])c1ccc(Cn2ccc3c(NCc4cccc(Cl)c4)ncnc32)cc1 [Compound 1, N-(3-Chlorobenzyl)-7-(4-nitrobenzyl)-7H-pyrrolo [2,3-d]pyrimidin-4-amine]	73	5.25	69	20		93	5.21	10.7	among the top inhibitors		> 100	
N#Cc1cccc(Cn2ccc3c(NCc4cccc(Cl)c4)ncnc32)c1 [Compound 11, 3-((4-((3-Chlorobenzyl)amino)-7H-pyrrolo[2,3-d]pyrimidin-7-yl)methyl)benzonitrile]	90	3.16	60	15.3		99	5.05	6.98	among the top inhibitors			
N#Cc1ccc(Cn2ncc3c(NCc4cccc(Cl)c4)ncnc32)cc1 [Compound 32, 4-((4-((3-Chlorobenzyl)amino)-1H-pyrazolo[3,4-d]pyrimidin-1-yl)methyl)benzonitrile]	79		88	17.4		88						
Clc1cccc(CNc2ncnc3c2ccn3Cc2ccc3ccccc3c2)c1 [Compound 13, N-(3-Chlorobenzyl)-7-(naphthalen-2-ylmethyl)-7H-pyrrolo[2,3-d]pyrimidin-4-amine]	75		45		18							
O=[N+]([O-])c1ccc(Cn2ccc3c(NCc4ccc(Cl)cc4)ncnc32)cc1 [Compound 20, N-(4-Chlorobenzyl)-7-(4-nitrobenzyl)-7H-pyrrolo[2,3-d]pyrimidin-4-amine]	93		49		37							
Nc1ccc(Cn2ccc3c(NCc4cccc(Cl)c4)ncnc32)cc1 [Compound 2, 7-(4-Aminobenzyl)-N-(3-chlorobenzyl)-7H-pyrrolo[2,3-d]pyrimidin-4-amine]	72		38									toxic
Clc1cccc(CNc2ncnc3c2ccn3Cc2cccc3ccccc23)c1 [Compound 12, N-(3-Chlorobenzyl)-7-(naphthalen-1-ylmethyl)-7H-pyrrolo[2,3-d]pyrimidin-4-amine]	84		73			66						
Clc1cccc(CNc2ncnc3c2ccn3Cc2ccc3nc(Cl)ccc3c2)c1 [Compound 16, N-(3-Chlorobenzyl)-7-((2-chloroquinolin-6-yl)methyl)-7H-pyrrolo[2,3-d]pyrimidin-4-amine]	95		34		10							
O=[N+]([O-])c1ccc(Cn2cnc3c(NCc4cccc(Cl)c4)ncnc32)cc1 [Compound 29, N-(3-Chlorobenzyl)-9-(4-nitrobenzyl)-9H-purin-6-amine]	59		87	24.5		90						
